Columns and labels:
[1] = system: human CD3+ T cells; conditions: T cells incubated with 0.01 μM to 10 mM AMD3100; anti-fugetactic at lower, fugetactic at higher concentrations; cells harvested after 3 h
Protocol: For quantitative transmigration assays, purified human CD3^+ T cells (approximately 2×10^4 cells) are added to the upper chamber of a Transwell® insert in each well, to a total volume of 150 μl of Iscove's modified medium. […] To determine the anti-fugetactic concentration of AMD3100, the T cells are incubated with 0.01 μM to 10 mM AMD3100 prior to addition to the chamber. Cells are harvested from the lower chamber after 3 h, and cell counts are performed using a hemocytometer.

[2] = system: human CD3+ T cells; conditions: CI of 1.0 is the control, triplicate wells
Protocol: Freshly prepared and purified human CD3^+ T cells were prepared from healthy donor peripheral blood. 20,000 T cells were loaded into the upper chamber of the Transwell in control, chemotactic or fugetactic settings with AMD3100 at concentrations between 0.1 μM and 10 μM. Migrated cells were counted in the lower chamber and migration quantitated as previously described. Vianello et al. The Journal of Immunology, 2006, 176: 2902-2914; Righi et al., Cancer Res.; 71(16); 5522-34, each of which is incorporated herein in its entirety.
All wells were run in triplicate.

## c1cc(CN2CCCNCCNCCCNCC2)ccc1CN1CCCNCCNCCCNCC1 [AMD3100, 1,1′-[1,4-phenylenebis(methylene)]bis [1,4,8,11-tetraazacyclotetradecane]]
[1]
  Effect of AMD3100 pre-incubation on T cell migration: bimodal effect
[2]; chemotactic setting, AMD3100 at 1 μM, FIG. 1
  CI (chemotactic index), chemotactic response: 2.3
[2]; fugetactic setting, AMD3100 at 0.1 μM, FIG. 2
  CI (chemotactic index), fugetactic response: 1.6

Source: US20170100433A1, “MODIFIED NATURAL KILLER CELLS HAVING ANTI-FUGETACTIC PROPERTIES AND USES THEREOF” (THE GENERAL HOSPITAL CORPORATION DBA MASSACHUSETTS GENERAL …, priority 2015, published 2017)
